Test results: ChEMBL document CHEMBL1201862, “PubChem BioAssay data set” (2004)
One block for each compound: values may come before it. Active and inactive are the calls of the source.

Assays:
[1] = inhibitors of intracellular T. cruzi replication, confirmation, NIH3T3 host cells, beta-gal luminescence (AID 2044); assay type: functional, cell-based;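 further: intracellular parasites grown in NIH/3T3 mouse fibroblasts as host cells; luminescent beta-galactosidase reporter signal from transgenic T. cruzi replicating inside host cells; inhibitors lower the luminescence signal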
[2] = cytotoxicity toward NIH3T3 fibroblasts, dose response, counter-screen, cell-based, ATP luminescence, mouse fibroblasts (AID 2010); assay type: functional;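 further: cells exposed to compound for about 90 hours before reading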
Coagulation factor XII = target: T1, Coagulation factor XII (Homo sapiens, UniProt P00748); assay: FXIIa inhibitor potency, concentration-response, biochemical (AID 716); assay type: functional
T1 sequence (P00748 whole entry): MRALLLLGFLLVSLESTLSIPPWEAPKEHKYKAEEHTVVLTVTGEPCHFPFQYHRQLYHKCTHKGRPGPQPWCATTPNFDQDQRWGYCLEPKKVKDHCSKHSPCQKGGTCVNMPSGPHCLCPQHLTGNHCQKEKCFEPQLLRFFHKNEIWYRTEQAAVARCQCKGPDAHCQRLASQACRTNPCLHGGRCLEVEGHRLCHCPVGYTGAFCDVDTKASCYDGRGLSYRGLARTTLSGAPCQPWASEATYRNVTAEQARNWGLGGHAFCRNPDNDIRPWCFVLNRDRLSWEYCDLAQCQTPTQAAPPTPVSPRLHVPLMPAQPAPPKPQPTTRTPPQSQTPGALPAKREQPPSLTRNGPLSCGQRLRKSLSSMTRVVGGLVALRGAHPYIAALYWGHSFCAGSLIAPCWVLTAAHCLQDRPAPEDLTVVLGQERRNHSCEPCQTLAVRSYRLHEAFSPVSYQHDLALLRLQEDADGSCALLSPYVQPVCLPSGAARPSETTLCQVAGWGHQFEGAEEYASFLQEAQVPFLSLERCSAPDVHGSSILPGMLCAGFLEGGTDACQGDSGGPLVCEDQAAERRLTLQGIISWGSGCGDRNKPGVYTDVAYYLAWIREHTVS

Trypsin = Trypsin (Sus scrofa, UniProt P00761); assay: porcine trypsin inhibitors, dose response, selectivity assay for Rce1 protease inhibitor project, biochemical, quenched peptide fluorescence, cherry-pick (AID 488789)
Chain of Trypsin (P00761 whole entry): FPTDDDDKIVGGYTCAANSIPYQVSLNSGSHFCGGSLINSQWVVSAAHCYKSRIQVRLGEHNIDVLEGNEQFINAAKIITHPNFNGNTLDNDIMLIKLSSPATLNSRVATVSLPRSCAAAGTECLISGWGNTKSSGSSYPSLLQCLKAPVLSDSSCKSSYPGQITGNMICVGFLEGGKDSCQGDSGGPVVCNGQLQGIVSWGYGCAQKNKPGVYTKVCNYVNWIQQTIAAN

CAAX prenyl protease 2 = target: T2, CAAX prenyl protease 2 (Saccharomyces cerevisiae S288c, UniProt Q03530); assay type: biochemical
T2 sequence (Q03530 whole entry): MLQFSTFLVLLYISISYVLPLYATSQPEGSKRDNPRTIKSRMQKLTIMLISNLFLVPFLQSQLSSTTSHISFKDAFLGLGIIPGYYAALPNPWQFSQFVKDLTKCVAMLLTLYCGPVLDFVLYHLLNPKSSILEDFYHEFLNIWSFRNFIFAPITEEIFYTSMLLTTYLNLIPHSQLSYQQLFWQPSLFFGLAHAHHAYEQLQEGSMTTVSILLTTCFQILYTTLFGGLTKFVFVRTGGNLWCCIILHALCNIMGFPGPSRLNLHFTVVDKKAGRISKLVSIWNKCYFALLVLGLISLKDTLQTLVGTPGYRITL

[3] = target: DNA dC->dU-editing enzyme APOBEC-3A (Homo sapiens, UniProt P31941); assay: Dose Response confirmation of small molecule APOBEC3A DNA Deaminase Inhibitors via a fluorescence-based single-stranded DNA deaminase assay. [Related pubchem assays (depositor defined):AID493011, AID493024]; assay type: functional
Chain of DNA dC->dU-editing enzyme APOBEC-3A (P31941 whole entry): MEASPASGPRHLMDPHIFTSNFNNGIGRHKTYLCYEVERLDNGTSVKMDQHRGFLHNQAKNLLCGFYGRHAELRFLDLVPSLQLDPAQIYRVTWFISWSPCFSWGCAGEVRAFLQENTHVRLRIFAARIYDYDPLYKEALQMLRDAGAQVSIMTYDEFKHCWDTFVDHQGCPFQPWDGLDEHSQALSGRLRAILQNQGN

[4] = target: DNA dC->dU-editing enzyme APOBEC-3G (Homo sapiens, UniProt Q9HC16); assay type: functional;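 further: Dose-response counterscreen measuring inhibition of APOBEC3G DNA deaminase activity, run while confirming APOBEC3A inhibitors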
Chain of DNA dC->dU-editing enzyme APOBEC-3G (Q9HC16 whole entry): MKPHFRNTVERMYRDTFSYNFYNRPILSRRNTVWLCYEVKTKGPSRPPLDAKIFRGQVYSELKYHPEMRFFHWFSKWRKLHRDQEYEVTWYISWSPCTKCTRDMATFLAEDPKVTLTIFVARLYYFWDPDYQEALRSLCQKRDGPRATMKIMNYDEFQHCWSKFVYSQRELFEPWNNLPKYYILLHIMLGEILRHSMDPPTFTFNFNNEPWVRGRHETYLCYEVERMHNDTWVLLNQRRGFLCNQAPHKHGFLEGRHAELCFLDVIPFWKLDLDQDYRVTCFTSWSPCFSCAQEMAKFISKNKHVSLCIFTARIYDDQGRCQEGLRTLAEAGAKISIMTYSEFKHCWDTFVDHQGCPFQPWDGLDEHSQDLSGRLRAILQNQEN

[5] = target: Sphingosine 1-phosphate receptor 4 (Homo sapiens, UniProt O95977); assay: Late-stage fluorescence dose response cell-based assay to identify agonists of the Sphingosine 1-Phosphate Receptor 4 (S1P4): purchased compounds EC50. [Related pubchem assays (depositor defined):AID1509, AID1523, AID1563, AID1686, AID1701, AID1801]; assay type: functional
Chain of Sphingosine 1-phosphate receptor 4 (O95977 whole entry): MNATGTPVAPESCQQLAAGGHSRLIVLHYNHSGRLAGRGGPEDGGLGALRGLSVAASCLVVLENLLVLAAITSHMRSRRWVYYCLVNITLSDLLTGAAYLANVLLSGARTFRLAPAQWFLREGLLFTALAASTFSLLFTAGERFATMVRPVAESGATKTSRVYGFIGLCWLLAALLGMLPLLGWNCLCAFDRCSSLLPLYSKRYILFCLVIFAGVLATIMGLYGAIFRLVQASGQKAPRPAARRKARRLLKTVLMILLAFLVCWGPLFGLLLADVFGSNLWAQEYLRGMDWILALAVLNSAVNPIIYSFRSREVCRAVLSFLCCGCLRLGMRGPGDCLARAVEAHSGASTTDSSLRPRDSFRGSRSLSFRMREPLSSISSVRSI

[6] = target: T3, Tyrosine-protein phosphatase non-receptor type 7 (Homo sapiens, UniProt P35236); assay: SAR analysis of chemical inhibitors of HePTP using a Fluorescent assay - Set 2. [Related pubchem assays (depositor defined):AID1059, AID1077, AID1661, AID2085, AID521]; assay type: functional
T3 sequence (P35236 whole entry): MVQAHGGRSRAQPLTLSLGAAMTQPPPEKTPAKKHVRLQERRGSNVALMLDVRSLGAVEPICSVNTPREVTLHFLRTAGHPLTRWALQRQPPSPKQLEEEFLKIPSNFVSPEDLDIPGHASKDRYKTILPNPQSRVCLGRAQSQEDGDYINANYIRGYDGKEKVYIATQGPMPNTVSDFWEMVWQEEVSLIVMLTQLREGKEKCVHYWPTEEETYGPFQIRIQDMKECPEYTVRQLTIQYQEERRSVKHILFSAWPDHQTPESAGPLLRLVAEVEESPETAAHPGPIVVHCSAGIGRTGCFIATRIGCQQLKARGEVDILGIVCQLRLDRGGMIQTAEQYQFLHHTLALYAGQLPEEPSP

[7] = target: Dual specificity protein phosphatase 3 (Homo sapiens, UniProt P51452); assay: SAR VHR1 Fluorescent Assay for In Vitro dose response studies Set 2. [Related pubchem assays (depositor defined):AID1654, AID1661, AID1878]; assay type: functional
Chain of Dual specificity protein phosphatase 3 (P51452 whole entry): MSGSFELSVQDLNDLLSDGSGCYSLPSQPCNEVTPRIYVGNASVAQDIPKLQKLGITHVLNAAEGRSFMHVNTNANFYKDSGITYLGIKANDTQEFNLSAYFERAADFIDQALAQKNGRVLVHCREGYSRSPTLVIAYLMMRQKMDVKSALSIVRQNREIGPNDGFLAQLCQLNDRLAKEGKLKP

Troponin, cardiac muscle = Troponin, cardiac muscle (Homo sapiens, UniProt P19429+P45379+P63316); assay: Fluorescence-based biochemical high throughput dose response assay for activators of the calcium sensitivity of cardiac Regulated Thin Filaments (RTF). [Related pubchem assays (depositor defined):AID493008, AID493018, AID504382, AID504383]; assay type: protein-complex assay
[8] = target: T4, Short transient receptor potential channel 4 (Mus musculus, UniProt Q9QUQ5); assay: mouse TRPC4 channel activators, dose response, cell-based, HEK293 TRPC4/mu-opioid, Fluo-4 calcium (AID 434937); assay type: functional
T4 sequence (Q9QUQ5 whole entry): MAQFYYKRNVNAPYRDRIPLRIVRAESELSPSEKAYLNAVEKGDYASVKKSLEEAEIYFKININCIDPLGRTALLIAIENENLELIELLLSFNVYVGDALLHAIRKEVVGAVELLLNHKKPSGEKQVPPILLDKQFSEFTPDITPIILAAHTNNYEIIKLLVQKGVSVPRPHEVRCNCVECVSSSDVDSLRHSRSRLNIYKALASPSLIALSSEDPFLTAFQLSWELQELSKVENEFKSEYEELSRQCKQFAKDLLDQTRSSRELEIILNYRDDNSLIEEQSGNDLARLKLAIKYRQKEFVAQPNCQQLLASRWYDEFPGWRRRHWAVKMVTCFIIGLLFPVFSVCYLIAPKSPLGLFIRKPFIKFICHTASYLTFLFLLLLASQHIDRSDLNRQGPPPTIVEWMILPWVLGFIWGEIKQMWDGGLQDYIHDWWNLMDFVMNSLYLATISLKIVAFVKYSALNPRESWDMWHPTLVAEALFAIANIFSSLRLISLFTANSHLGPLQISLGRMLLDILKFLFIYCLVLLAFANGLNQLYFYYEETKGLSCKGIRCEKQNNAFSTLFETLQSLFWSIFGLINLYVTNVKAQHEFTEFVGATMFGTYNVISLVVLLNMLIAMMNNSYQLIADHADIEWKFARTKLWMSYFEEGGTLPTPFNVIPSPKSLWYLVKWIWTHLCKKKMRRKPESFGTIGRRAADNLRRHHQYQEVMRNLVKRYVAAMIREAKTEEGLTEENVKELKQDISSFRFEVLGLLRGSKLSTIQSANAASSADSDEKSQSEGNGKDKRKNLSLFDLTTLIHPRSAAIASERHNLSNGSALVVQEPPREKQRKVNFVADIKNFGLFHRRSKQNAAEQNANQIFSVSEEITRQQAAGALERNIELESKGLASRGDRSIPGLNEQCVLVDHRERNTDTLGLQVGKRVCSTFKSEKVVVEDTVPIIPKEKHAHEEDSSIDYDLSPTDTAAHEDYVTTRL

[9] = target: T5, High affinity choline transporter 1 (Homo sapiens, UniProt Q9GZV3); assay: CHT inhibitors, dose response, cell-based, 5-point CRC, membrane potential dye (AID 504840); assay type: functional
T5 sequence (Q9GZV3 whole entry): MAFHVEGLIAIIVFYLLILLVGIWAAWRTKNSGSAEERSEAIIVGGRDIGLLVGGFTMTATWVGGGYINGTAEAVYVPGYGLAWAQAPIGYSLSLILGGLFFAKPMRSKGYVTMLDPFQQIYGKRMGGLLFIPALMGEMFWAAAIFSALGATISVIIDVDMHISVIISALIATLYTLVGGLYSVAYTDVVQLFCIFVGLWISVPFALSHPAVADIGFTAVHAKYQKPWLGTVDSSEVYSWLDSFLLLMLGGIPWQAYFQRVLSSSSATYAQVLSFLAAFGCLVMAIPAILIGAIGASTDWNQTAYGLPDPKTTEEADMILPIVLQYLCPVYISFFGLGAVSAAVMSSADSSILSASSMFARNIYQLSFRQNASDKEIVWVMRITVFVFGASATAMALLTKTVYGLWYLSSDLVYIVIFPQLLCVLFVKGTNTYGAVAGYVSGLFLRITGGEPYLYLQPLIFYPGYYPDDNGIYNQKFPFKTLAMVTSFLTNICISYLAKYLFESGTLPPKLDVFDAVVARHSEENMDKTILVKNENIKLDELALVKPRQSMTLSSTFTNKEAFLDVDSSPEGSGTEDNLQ

[10] = target: T5, High affinity choline transporter 1; assay: CHT inhibitors, dose response, cell-based, 10-point CRC, membrane potential dye (AID 588401); assay type: functional;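 further: membrane potential dye fluorescence of choline-evoked depolarization via CHT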

SMILES: COc1ccc(C)cc1NC(=O)CCC(=O)Nc1ccc2nc(N3CCN(C)CC3)cc(C)c2c1
- EC50 [1]: 0.635 µM (active)
- EC50 [2]: 8.73 µM (active)
- IC50 (Coagulation factor XII): > 50 µM (inactive)
- AC50 (Trypsin): 19.7 µM (active)
- AC50 (CAAX prenyl protease 2): 16.4 µM (active)

SMILES: CC(Oc1ccc(Br)cc1)C(=O)Nc1cc(Cl)ccc1N1CCN(C)CC1 (centres undefined)
- IC50 [3]: 3.15 µM (active)
- IC50 [4]: 4.26 µM (active)

- EC50 [5]: > 50 µM (inactive)
SMILES: Cc1nn(Cc2ccccc2)c(Cl)c1C(=O)OC(C)C(=O)Nc1nc(-c2ccccc2)cs1 (centres undefined)

SMILES: COc1cc(C(=S)NCc2ccc(F)cc2)ccc1O
- IC50 [6]: > 100 µM (inactive)
- IC50 [7]: 99.5 µM (inactive)

SMILES: CC(=O)OCC[N+](C)(C)C [ACETYLCHOLINE CHLORIDE]
- EC50 (Troponin, cardiac muscle): > 71.4 µM (inactive)
- EC50 [8]: 0.421 µM (active)
- IC50 [9]: 6.26 µM (active)
- IC50 [10]: 0.566 µM (active)
